Where “and” joins values, the source holds several entries; their conditions need not be identical. Equal values may be shown once.
Experiments:
[1] = target: T1, Ba/F3 cell EGFR Exon20 ins ASV (Homo sapiens, UniProt P00533, INS769ASV); assay: Ba/F3 cell proliferation suppression, EGFR Exon20 ins ASV; assay type: cell-based; details: 72 hours after treatment, CellTiter-Glo
T1 construct: expressed in transfected cells; host or cells: Ba/F3
Description: (§1) The following experiment was carried out to evaluate the suppression activity of the compounds according to the present invention against proliferation of Ba/F3 and lung cancer cells which express EGFR mutations.
(§2) Of the cancer cell lines expressing the EGFR gene, A549 was cultured after adding 10% FBS (HyClone) to DMEM (Invitrogen), and RPMI-1640 (Invitrogen) with 10% FBS was used for the other cancer cells. For the Ba/F3 cells, RPMI-1640 with 10% FBS and 5 ng/ml IL-3 (R&D Systems) was used. The transduced Ba/F3 cells were cultured by adding 1 ug/ml puromycin (Invitrogen) to the same medium.
(§3) 24 hours before treatment with the compounds, 3000 to 5000 cells were distributed into each well of a white clear bottom 96 well plate (Corning). The compounds were diluted in dimethylsulfoxide (dilution ratio 3:1; 12 concentrations total) and injected 0.5 ul each for a final concentration of 0.3 nM to 50 um. As for measurement of live cells, 72 hours after treatment with the compounds, a CellTiter-Glo luminescent cell-viability reagent (Promega) was used to store the cells at room temperature for 10 minutes, followed by measurement of luminescence using a reader (SynergyNeo, Biotek). Each test was repeated three times.
(§4) The result was calculated as a cell growth ratio (%) compared to a control. The program GraphPad Prism version 5.0 was used to draw the graphs and calculate the GI50 values.

[2] = target: T2, Ba/F3 cell HER2 Exon20 ins YVMA (Homo sapiens, UniProt P04626, INS775YVMA); assay: Ba/F3 cell proliferation suppression, HER2 Exon20 ins YVMA; assay type: cell-based; details: 72 hours after treatment, CellTiter-Glo
T2 construct: expressed in transfected cells; host or cells: Ba/F3
Description: as §1, §2, §3, §4

[3] = target: T3, Ba/F3 cell EGFR Exon20 ins SVD (Homo sapiens, UniProt P00533, INS770SVD); assay: Ba/F3 cell proliferation suppression, EGFR Exon20 ins SVD; assay type: cell-based; details: 72 hours after treatment, CellTiter-Glo
T3 construct: expressed in transfected cells; host or cells: Ba/F3
Description: as §1, §2, §3, §4

PC9GR = assay: Lung cancer cell proliferation suppression, PC9GR; assay type: cell-based; details: 72 hours after treatment, CellTiter-Glo
Description: as §1, §2, §3, §4

H1975 = assay: Lung cancer cell proliferation suppression, H1975; assay type: cell-based; details: Homo sapiens, NCI-H1975; 72 hours after treatment, CellTiter-Glo
Description: as §1, §2, §3, §4

PC9 = assay: Lung cancer cell proliferation suppression, PC9; assay type: cell-based; details: Homo sapiens, PC-9; 72 hours after treatment, CellTiter-Glo
Description: as §1, §2, §3, §4

[4] = system: Ba/F3 cell EGFR Del19/T790M; assay: Ba/F3 cell proliferation suppression, EGFR Del19/T790M; assay type: cell-based; details: 72 hours after treatment, CellTiter-Glo
How it was run: (§5)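 Cells were seeded 24 h before dosing and then treated for 72 hours with compound at final concentrations of 0.3 nM to 50 um. Live cells were measured by CellTiter-Glo luminescence, and GI50 values were derived from growth ratio relative to control across three repeats.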

[5] = target: T4, Ba/F3 cell EGFR Exon20 ins NPH (Homo sapiens, UniProt P00533, INS773NPH); assay: Ba/F3 cell proliferation suppression, EGFR Exon20 ins NPH; assay type: cell-based; details: for GI50: 72 hours after treatment, CellTiter-Glo; for Ba/F3 (NPH) Activity: GI50 class, Ba/F3 cell line with NPH inserted at Exon20 of EGFR, 72 hours
T4 construct: expressed in transfected cells; host or cells: Ba/F3
How it was run: as §5

[6] = target: T5, Ba/F3 cell EGFR Exon20 ins FQEA (Homo sapiens, UniProt P00533, INS763FQEA); assay: Ba/F3 cell proliferation suppression, EGFR Exon20 ins FQEA; assay type: cell-based; details: 72 hours after treatment, CellTiter-Glo
T5 construct: expressed in transfected cells; host or cells: Ba/F3
Description: as §1, §2, §3, §4

Ba/F3 cell EGFR L858R = target: T6, Ba/F3 cell EGFR L858R (Homo sapiens, UniProt P00533, L858R); assay: Ba/F3 cell proliferation suppression, EGFR L858R; assay type: cell-based; details: 72 hours after treatment, CellTiter-Glo
T6 construct: expressed in transfected cells; host or cells: Ba/F3
Description: as §1, §2, §3, §4

[7] = Cancer cell proliferation suppression, A549; assay type: cell-based; details: A459; 72 hours after treatment, CellTiter-Glo
Description: as §1, §2, §3, §4

[8] = target: T7, Ba/F3 cell EGFR L858R/T790M (Homo sapiens, UniProt P00533, L858R/T790M); assay: Ba/F3 cell proliferation suppression, EGFR L858R/T790M; assay type: cell-based; details: 72 hours after treatment, CellTiter-Glo
T7 construct: expressed in transfected cells; host or cells: Ba/F3
How it was run: as §5

Ba/F3 cell naive = assay: Ba/F3 cell proliferation suppression, naive; assay type: cell-based; details: Mus musculus, BaF3; 72 hours after treatment, CellTiter-Glo
How it was run: as §5

[9] = system: Ba/F3 cell EGFR Exon20 ins H; assay: Ba/F3 cell proliferation suppression, EGFR Exon20 ins H; assay type: cell-based; details: 72 hours after treatment, CellTiter-Glo
Description: as §1, §2, §3, §4

[10] = system: scanMAX kinase panel (EGFR mutant, ERBB2, ERBB4); assay: DiscoverX (eurofin) KINOMEscan (scanMAX platform) kinase profiling; assay type: binding
Description: It was confirmed that the above example compounds had high selectivity against EGFR series genes. Accordingly, these can be useful in the treating of cancers wherein this kinase is expressed. In particular, as they have substantially outstanding lung cancer cell line proliferation suppression, they can be useful in the treatment of lung cancer, breast cancer, and brain cancer.

T2 sequence (P04626 with tags, fused parts or gaps INS775YVMA): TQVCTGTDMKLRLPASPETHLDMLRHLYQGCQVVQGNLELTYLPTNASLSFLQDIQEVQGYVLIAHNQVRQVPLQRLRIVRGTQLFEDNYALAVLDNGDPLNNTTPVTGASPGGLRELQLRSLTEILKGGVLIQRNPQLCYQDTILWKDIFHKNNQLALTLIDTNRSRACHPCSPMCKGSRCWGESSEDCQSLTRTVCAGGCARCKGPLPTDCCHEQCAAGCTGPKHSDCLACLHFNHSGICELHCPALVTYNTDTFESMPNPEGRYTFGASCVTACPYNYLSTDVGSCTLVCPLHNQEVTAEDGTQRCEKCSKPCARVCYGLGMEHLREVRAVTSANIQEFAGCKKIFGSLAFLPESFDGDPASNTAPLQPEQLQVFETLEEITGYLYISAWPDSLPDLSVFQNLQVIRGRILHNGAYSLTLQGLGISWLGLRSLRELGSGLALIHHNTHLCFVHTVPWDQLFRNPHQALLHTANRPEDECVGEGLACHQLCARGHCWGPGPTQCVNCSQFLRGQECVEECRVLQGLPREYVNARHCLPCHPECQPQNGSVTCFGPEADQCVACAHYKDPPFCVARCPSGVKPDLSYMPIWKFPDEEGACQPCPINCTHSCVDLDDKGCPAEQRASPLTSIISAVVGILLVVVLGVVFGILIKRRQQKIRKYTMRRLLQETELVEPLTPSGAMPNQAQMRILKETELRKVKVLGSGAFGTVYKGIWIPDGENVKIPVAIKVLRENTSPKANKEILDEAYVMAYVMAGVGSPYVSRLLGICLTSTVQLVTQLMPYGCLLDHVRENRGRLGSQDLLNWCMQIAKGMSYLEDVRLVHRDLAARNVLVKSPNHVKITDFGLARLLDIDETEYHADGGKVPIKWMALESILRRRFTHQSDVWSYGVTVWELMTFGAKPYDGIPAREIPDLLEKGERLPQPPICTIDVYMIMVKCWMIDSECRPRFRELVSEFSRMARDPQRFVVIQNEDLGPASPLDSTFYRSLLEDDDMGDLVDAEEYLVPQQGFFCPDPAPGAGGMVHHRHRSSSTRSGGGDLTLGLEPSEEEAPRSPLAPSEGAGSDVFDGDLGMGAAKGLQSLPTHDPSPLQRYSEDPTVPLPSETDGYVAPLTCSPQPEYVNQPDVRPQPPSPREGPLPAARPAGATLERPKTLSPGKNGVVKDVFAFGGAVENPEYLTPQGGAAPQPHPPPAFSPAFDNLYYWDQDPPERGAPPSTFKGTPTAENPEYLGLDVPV

Row | SMILES | GI50 [1] | GI50 [2] | GI50 [3] | GI50 (PC9GR) | GI50 (H1975) | GI50 (PC9) | GI50 [4] | GI50 [5] | Ba/F3 (NPH) Activity [5] | GI50 [6] | GI50 (Ba/F3 cell EGFR L858R) | GI50 [7] | GI50 [8] | GI50 (Ba/F3 cell naive) | GI50 [9] | further results
1 | C=CC(=O)Nc1cc(Nc2cc(N3OCC[C@@H]3c3ccccc3)ncn2)c(OC)cc1N1CCC(N(C)C)CC1 [Example 12, N-(2-(4-(dimethylamino)piperidine-1-yl)-4-methoxy-5-((6-((R)-3-phenylisoxazolidine-2-yl)pyrimidine-4-yl)amino)phenyl) acrylamide] | < 0.05 µM | < 0.05 µM | < 0.05 µM | 5 nM | 8 nM | 12 nM | < 0.05 µM | < 0.05 µM | A (GI50 < 50 nM) | < 0.05 µM | < 0.05 µM | > 15000 nM | < 0.05 µM | ≥ 5 µM | < 0.05 µM | 
2 | C=CC(=O)N1CCC(Oc2cc3c(Nc4ccc(Cl)c(Cl)c4F)ncnc3cc2OC)CC1 [Poziotinib] |  |  |  | 20 nM | 34 nM | 1 nM |  |  |  |  |  | > 15000 nM |  |  |  | 
3 | C=CC(=O)Nc1cc(Nc2cc(N3OCC[C@@H]3c3ccccc3)ncn2)ccc1N(C)CCN(C)C [Example 28] | < 0.05 µM | < 0.05 µM | < 0.05 µM |  |  |  | < 0.05 µM | < 0.05 µM | A (GI50 < 50 nM) | < 0.05 µM | < 0.05 µM |  | < 0.05 µM | 0.5 to 5 µM | < 0.05 µM | 
4 | O=C(Nc1cnn2ccc(N3CCC[C@@H]3c3cc(F)ccc3F)nc12)N1CC[C@H](O)C1 [Larotrectinib] |  |  |  | 14 nM | 24 nM | 5 nM |  |  |  |  |  | 4820 nM |  |  |  | 
5 | C=CC(=O)Nc1cc(Nc2cc(N3OCC[C@@H]3c3ccccc3)ncn2)c(OC)cc1N1CCN(CC)CC1 [Example 15, N-(2-(4-ethylpiperazine-1-yl)-4-methoxy-5-((6-((R)-phenylisoxazolidine-2-yl)pyrimidine-4-yl)amino)phenyl) acrylamide] | < 0.05 µM | < 0.05 µM | < 0.05 µM | 6 nM | 13 nM | 7 nM | < 0.05 µM | < 0.05 µM | A (GI50 < 50 nM) | < 0.05 µM | < 0.05 µM | > 15000 nM | < 0.05 µM | ≥ 5 µM | < 0.05 µM | 
6 | C=CC(=O)Nc1cc(Nc2nccc(-c3cn(C)c4ccccc34)n2)c(OC)cc1N(C)CCN(C)C [Osimertinib] |  |  |  | 16 nM | 36 nM | 7 nM |  |  |  |  |  | 2410 nM |  |  |  | 
7 | C=CC(=O)Nc1cc(Nc2cc(N3OCC[C@@H]3c3ccccc3)ncn2)ccc1N1CCN(C)CC1 [Example 29, N-(2-(4-methylpiperazine-1-yl)-5-((6-((R)-3-phenylisoxazolidine-2-yl)pyrimidine-4-yl)amino)phenyl) acrylamide] | < 0.05 µM | < 0.05 µM | < 0.05 µM |  |  |  | < 0.05 µM | < 0.05 µM | A (GI50 < 50 nM) | < 0.05 µM | < 0.05 µM |  | < 0.05 µM | ≥ 5 µM | < 0.05 µM | 
8 | C=CC(=O)Nc1cc(Nc2cc(N3OCC[C@@H]3c3ccccc3)ncn2)c(OC)cc1N1CCC(N2CCOCC2)CC1 [Example 11, N-(4-methoxy-2-(4-morpholinopiperidine-1-yl)-5-((6-((R)-3-phenylisoxazolidine-2-yl)pyrimidine-4-yl)amino)phenyl) acrylamide] |  |  |  | 7 nM | 9 nM | 2 nM |  |  | A (GI50 < 50 nM) |  |  | > 15000 nM |  |  |  | 
9 | C=CC(=O)Nc1cc(Nc2cc(N3OCC[C@H]3c3ccccc3)ncn2)c(OC)cc1N1CCN(C)CC1 [Example 3, N-(4-methoxy-2-(4-methylpiperazine-1-yl)-5-((6((S)-3-phenylisoxazolidine-2-yl)pyrimidine-4-yl)amino)phenyl) acrylamide] | 0.05 to 0.5 µM | 0.05 to 0.5 µM | 0.05 to 0.5 µM |  |  |  | 0.05 to 0.5 µM | 0.05 to 0.5 µM | B (50 nM ≤ GI50 < 500 nM) | < 0.05 µM |  |  | 0.5 to 5 µM | ≥ 5 µM | 0.5 to 5 µM | 
10 | C=CC(=O)Nc1cc(Nc2cc(N3OCC[C@@H]3c3cc(F)cc(F)c3)ncn2)c(OC)cc1N1CCC(N(C)C)CC1 [Example 241, N-(5-((6-((R)-3-(3,5-difluorophenyl)isoxazolidine-2-yl)pyrimidine-4-yl)amino)-2-(4-(dimethylamino)piperidine-1-yl)-4-methoxyphenyl) acrylamide] | < 0.05 µM | < 0.05 µM | < 0.05 µM | 12 nM | 1 nM | 1 nM | < 0.05 µM | < 0.05 µM | A (GI50 < 50 nM) | < 0.05 µM | < 0.05 µM |  | < 0.05 µM | 0.5 to 5 µM |  | % inhibition of scanMAX Kinase profiling ([10]; EGFR(E746-A750del)): 50% and 100%; % inhibition of scanMAX Kinase profiling ([10]; EGFR(G719C)): 100%; % inhibition of scanMAX Kinase profiling ([10]; EGFR(G719S)): 100% and 99%; % inhibition of scanMAX Kinase profiling ([10]; EGFR(L747-E749del, A750P)): 99% and 98%; % inhibition of scanMAX Kinase profiling ([10]; EGFR(L747-T751del.Sins)): 100% and 96%; % inhibition of scanMAX Kinase profiling ([10]; EGFR(L858R.T790M)): 96% and 98%; % inhibition of scanMAX Kinase profiling ([10]; EGFR(L861q)): 100% and 98%; % inhibition of scanMAX Kinase profiling ([10]; EGFR(S752-I759del)): 100% and 95%; % inhibition of scanMAX Kinase profiling ([10]; EGFR(T790M)): 100%; % inhibition of scanMAX Kinase profiling ([10]; ERBB2): 100%; % inhibition of scanMAX Kinase profiling ([10]; ERBB4): 100% and 94%; suppression activity against the EGFR mutant and ERBB2 and ERBB4 ([10]; KINOMEscan scanMAX kinase profiling): high suppression activity

Source: patent US12157730B2, “Heteroaryl derivative, method for producing same, and pharmaceutical composition comprising same as effective component” (VORONOI INC., priority 2019, dated 2024)
